# Like-named read-outs stand apart in the source and are kept apart here.
# What was measured:
# [1] = tested on: THLE-2 (transformed human liver epithelial) cells; test: Transformed human liver epithelial (THLE) assay, ATP depletion 72 h; assay type: cell-based; conditions: for IC50: Homo sapiens, read-out: THLE; for cytotoxicity in THLE cell line, in words: cellular ATP
# Experimental: Transformed Human Liver […] (THLE) Assay:
# ATP depletion was measured after 72 hours of exposure to a particular concentration of the chemical. […] Cells were cultured in T175 Human fibronectin/collagen/bovine serum albumin coated flasks. […] Plates were incubated for 24 hours at 37° C., 5% CO2.
# All compounds were initially solubilized in 100% DMSO. This dosing scheme contained 32 compounds per plate. Stock plates were prepared using 1 μl aliquots of 100× compound/well (30 mM-0.058 mM). The plates were prepared for dosing by adding 99 μl of cell culture media and mixing. Test compounds were added to cell culture plates by aspirating overnight culture media and replacing with 25 μL/well of media containing test compound using the layout outlined below. The final concentration of DMSO in each well was 1.0%. […] The ATP concentration was determined by reading luminescence using a Wallac Envision plate reader (Perkin Elmer, Waltham, Mass., USA). Percent of viable cells relative to no-drug treated controls was determined for each well.
# kappa opioid receptor [2] = target: T1, kappa opioid receptor (Mus musculus, UniProt P33534); test: In vivo receptor occupancy (displacement of [3H]GR103545 in brain); conditions: subcutaneous dosing; for IC50: displacement of [3H]GR103545, unbound brain concentration, read-out: Mouse KOR IVRO unbound brain IC50
# T1 construct: from tissue; host or cells: brain of adult male C57BL/6J mice (in vivo)
# T1 sequence (P33534 whole entry): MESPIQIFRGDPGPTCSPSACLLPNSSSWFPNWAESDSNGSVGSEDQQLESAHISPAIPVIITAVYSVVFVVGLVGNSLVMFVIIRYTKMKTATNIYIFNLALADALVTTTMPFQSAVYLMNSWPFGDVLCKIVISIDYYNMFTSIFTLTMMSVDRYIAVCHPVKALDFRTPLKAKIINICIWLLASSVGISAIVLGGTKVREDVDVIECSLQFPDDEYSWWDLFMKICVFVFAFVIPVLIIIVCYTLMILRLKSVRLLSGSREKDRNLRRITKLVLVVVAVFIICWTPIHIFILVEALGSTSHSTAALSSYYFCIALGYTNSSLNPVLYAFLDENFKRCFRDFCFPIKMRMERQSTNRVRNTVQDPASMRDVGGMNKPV
# Source text: (§1) Adult male C576BL/J6 mice from Jackson Labs (Bar Harbor, Me.) were group housed on individually-vented cage racks, in environmentally-controlled animal quarters (light/dark-6:00 am/6:[…]) for a minimum of 7 days prior to use. For progressive ratio studies, mice were food-restricted to 80-85% of their body weight before testing began. All animal procedures were approved by the Pfizer Inc. IACUC and conducted in accordance with the NIH Guide for the Care and Use of Laboratory Animals.
# In Vivo Receptor Occupancy
# In vivo receptor occupancy was assessed in adult male C57BL6/J mice. Mice were administered increasing doses (0.001-32 mg/kg s.c.) 30 min prior to administration of the kappa opioid receptor ligand, [^3H]GR103545 (100 μCi/kg, intraorbital). Animals were euthanized 10 min later using cervical dislocation and the brains dissected. One hemisphere was stored at −40° C. for subsequent measurement of compound concentration, the other was homogenized in chilled Tris-HCl buffer (50 mM, pH 7.4; 1:10 w/v) for twenty seconds. Samples of brain homogenate were filtered through 0.3 to 0.5% PEI-soaked GF/B filters, and the filters washed twice with chilled buffer before radioactivity was counted overnight using a scintillation counter. Binding of the ligand in cerebellum was used to determine non-specific binding.
# kappa opioid receptor [3] = target: T1, kappa opioid receptor; test: Progressive ratio responding (reversal of spiradoline-induced deficit in motivation); assay type: in vivo; conditions: co-administered with spiradoline, receptor occupancy measured in a separate group of animals
# Source text: as §1
# Progressive Ratio Responding:
# Motivation and food-reinforced operant behavior were assessed in the progressive ratio assay. Adult male C576BL/J6 mice were food-restricted to 80-85% of their body weight over a period of one week and kept in their home cages. Mice were trained to nose-poke for a food reward. […] Mice were assessed in a 60 minute session, where the number of rewards obtained was used as a surrogate of the level of motivation. Once mice had reached a stable level of responding, mice were dosed with the kappa opioid receptor agonist, spiradoline (3.2 mg/kg s.c.), to induce a deficit in motivation. Mice were co-administered increasing doses of the kappa opioid receptor antagonists (0.0032-3.2 mg/kg s.c.) to assess their ability to antagonize the spiradoline-induced deficit.
# [4] = THLE-2, ATP cell viability, 72 hours
SMILES,"IC50 ([1]; THLE-2, 72 h)","cytotoxicity in THLE cell line, in words ([1]; 72 hours)","displacement of KOR agonist radioligand binding in the brain, in words (kappa opioid receptor [2])",IC50 (kappa opioid receptor [2]),% KOR IVRO to achieve 50% PR reversal (kappa opioid receptor [3]),"IC50 [1, 4]"
NC(=O)c1ccc(Oc2ccc(CN3CCCC3c3ccccc3)cc2)nc1 (centres unmarked) [Comparator D],179 µM,,,,,
NC(=O)c1ccc(Oc2ccc(CN3CCC[C@H]3c3cccc(F)c3)cc2)c(F)c1 [Comparator F],37 µM,cytotoxicity at lower concentrations,,,,
"COc1nn(C)cc1[C@@H]1CCCN1Cc1ccc(Oc2ccc(C(N)=O)cc2)cc1 (single isomer, unassigned) [Example 12]",,little to no cytotoxicity,displaced KOR agonist radioligand ([^3H]GR103545) binding in the brain in an exposure-dependent manner,2.5 nM,30%,> 300 µM
"COc1nn(C)cc1C1CCCN1Cc1ccc(Oc2ccc(C(N)=O)cc2F)cc1 (single isomer, unassigned; (-)) [Example 8, (−)-3-Fluoro-4-(4-{[2-(3-methoxy-1-methyl-1H-pyrazol-4-yl)pyrrolidin-1-yl]methyl}phenoxy)benzamide]",,little to no cytotoxicity,displaced KOR agonist radioligand ([^3H]GR103545) binding in the brain in an exposure-dependent manner,0.69 nM,25%,> 300 µM
NC(=O)c1ccc(Oc2ccc(CN3CCCC3c3cccnc3)cc2)c(Cl)c1 (centres unmarked) [Comparator C],,,,,,177 µM
"Cc1nn(C)cc1[C@@H]1CCCN1Cc1ccc(Oc2ccc(C(N)=O)cc2)cc1 [Example 11, 4-(4-{[(2S)-2-(1,3-Dimethyl-1H-pyrazol-4-yl)pyrrolidin-1-yl]methyl}phenoxy)benzamide]",> 300 µM,little to no cytotoxicity,displaced KOR agonist radioligand ([^3H]GR103545) binding in the brain in an exposure-dependent manner,2.5 nM,30%,
"NC(=O)c1ccc(Oc2ccc(CN3CCC(c4ccccc4)C3)cc2)nc1 (centres unmarked) [Comparator A, reference compound]",,,,,,> 300 µM
"Cc1cc(C)cc([C@@H]2CCCN2Cc2ccc(Oc3ccc(C(N)=O)cc3F)cc2)c1 [Comparator E, reference compound]",,cytotoxicity at lower concentrations,displaced KOR agonist radioligand ([^3H]GR103545) binding in the brain in an exposure-dependent manner,0.015 nM,70%,26 µM
NC(=O)c1ccc(Oc2ccc(CN3CCCCC3c3ccccc3)cc2)nc1 (centres unmarked) [Comparator B],,,,,,224 µM

# — patent US10316021B2, “Heteroarylphenoxy benzamide kappa opioid ligands” (Pfizer Inc., priority 2016, dated 2019)
